Data reported in article PMC5400543, “Design, sythesis and evaluation of a series of 3- or 4-alkoxy substituted phenoxy derivatives as PPARs agonists” (Oncotarget, 2017).
pEC50: −log10 of the molar value.

Tests used:
PPARα = biological target: T1, PPARα (Homo sapiens, UniProt Q07869); assay: In vitro PPARα transactivation assay (Gal4-hPPARαLBD luciferase reporter in 293E cells); type: cell-based; conditions: 24 h; for PPARα Activation Fold: 10^−5 M, Csamples/Ccontrol, mean±SEM
T1 construct: pcDNA3.1-hPPARαLBD-Gal4DB; expressed in transfected cells; host or cells: 293E cells
T1 sequence (Q07869 239-466 limits assumed): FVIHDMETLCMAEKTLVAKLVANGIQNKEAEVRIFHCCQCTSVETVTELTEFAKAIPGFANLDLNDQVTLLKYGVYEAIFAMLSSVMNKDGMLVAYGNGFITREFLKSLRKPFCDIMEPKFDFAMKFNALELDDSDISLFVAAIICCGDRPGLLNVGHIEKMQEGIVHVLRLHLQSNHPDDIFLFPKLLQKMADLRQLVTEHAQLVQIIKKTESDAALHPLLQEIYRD

PPARγ [1] = biological target: T2, PPARγ (Homo sapiens, UniProt P37231); assay: In vitro PPARγ transactivation assay (Gal4-hPPARγLBD luciferase reporter in 293E cells); conditions: 10^−5 M, 24 h, Csamples/Ccontrol, mean±SEM
T2 sequence (P37231 238-503 limits assumed): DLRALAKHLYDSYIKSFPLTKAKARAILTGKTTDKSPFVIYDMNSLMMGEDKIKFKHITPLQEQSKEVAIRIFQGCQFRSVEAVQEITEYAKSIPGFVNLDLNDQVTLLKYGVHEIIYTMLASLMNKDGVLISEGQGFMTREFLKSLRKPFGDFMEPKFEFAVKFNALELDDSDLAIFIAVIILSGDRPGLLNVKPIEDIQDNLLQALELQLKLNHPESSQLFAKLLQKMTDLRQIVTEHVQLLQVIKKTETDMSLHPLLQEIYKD

PPARδ [2] = biological target: T3, PPARδ (Homo sapiens, UniProt Q03181); assay: In vitro PPARδ transactivation assay (Gal4-hPPARδLBD luciferase reporter in 293E cells); conditions: for PPARδ Activation Fold: 10^−5 M, 24 h, Csamples/Ccontrol, mean±SEM; for Cmax: read-out: Cmax, concentration at maximum efficiency percentage (Max%), PPARδ, 24 h, multiple concentrations
T3 sequence (Q03181 211-439 limits assumed): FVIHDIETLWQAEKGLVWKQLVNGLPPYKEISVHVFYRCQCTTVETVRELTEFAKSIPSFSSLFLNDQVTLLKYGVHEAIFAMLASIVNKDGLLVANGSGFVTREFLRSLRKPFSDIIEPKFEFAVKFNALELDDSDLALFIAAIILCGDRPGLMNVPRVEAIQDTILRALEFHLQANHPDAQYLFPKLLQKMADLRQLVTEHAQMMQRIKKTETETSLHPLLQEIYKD

PPARδ [3] = biological target: T3, PPARδ; assay: cell-based
PPARγ [4] = biological target: T2, PPARγ
PPARγ [5] = biological target: T2, PPARγ; assay: cell-based

SMILES | PPARα Activation Fold (PPARα) | PPARγ Activation Fold (PPARγ [1]) | PPARδ Activation Fold (PPARδ [2]) | pEC50 (PPARδ [3]) | Cmax (PPARδ [2]) | Cmax (PPARγ [4]) | pEC50 (PPARγ [5]) | pEC50 (PPARα; multiple concentrations) | Cmax (PPARα; multiple concentrations, read-out: Cmax, concentration at maximum efficiency percentage (Max%), PPARα)
CC(C)(Oc1ccc(OCCn2ccc3ccccc32)cc1)C(=O)O [6a, 2-(4-(2-(1H-indol-1-yl)ethoxy)phenoxy)-2-methylpropanoic acid] | 1.00±0.07 | 1.21±0.09 | 0.97±0.09 |  |  |  |  |  | 
CC(C)(Oc1ccc(OCCn2c3ccccc3c3ccccc32)cc1)C(=O)O [6b, 2-(4-(2-(9H-carbazol-9-yl)ethoxy)phenoxy)-2-methylpropanoic acid] | 0.80±0.00 | 1.19±0.00 | 1.23±0.07 |  |  |  |  |  | 
CC(C)(Oc1ccc(OCCCn2ccc3ccccc32)cc1)C(=O)O [6c, 2-(4-(3-(1H-indol-1-yl)propoxy)phenoxy)-2-methylpropanoic acid] | 1.78±0.10 | 1.40±0.18 | 0.94±0.02 |  |  |  |  |  | 
CC(C)(Oc1ccc(OCCCn2c3ccccc3c3ccccc32)cc1)C(=O)O [6d, 2-(4-(3-(9H-carbazol-9-yl)propoxy)phenoxy)-2-methylpropanoic acid] | 1.96±0.17 | 1.57±0.00 | 1.13±0.03 |  |  |  |  |  | 
CC(C)(Oc1ccc(OCCCn2cnc3ccccc32)cc1)C(=O)O [6e, 2-(4-(3-(1H-benzo[d]imidazol-1-yl)propoxy)phenoxy)-2-methylpropanoic acid] | 1.38±0.06 | 1.26±0.01 | 7.09±0.97 | 7.95 | 0.1 µM |  |  |  | 
CC(C)(Oc1cccc(OCC(=O)c2ccccc2)c1)C(=O)O [6f, 2-Methyl-2-(3-(2-oxo-2-phenylethoxy)phenoxy)propanoic acid] | 1.58±0.09 | 1.22±0.01 | 1.27±0.09 |  |  |  |  |  | 
CC(C)(Oc1cccc(OCCn2c3ccccc3c3ccccc32)c1)C(=O)O [6g, 2-(3-(2-(9H-carbazol-9-yl)ethoxy)phenoxy)-2-methylpropanoic acid] | 1.40±0.27 | 18.55±0.06 | 1.28±0.11 |  |  | 50 µM | 4.93 |  | 
CC(C)(Oc1cccc(OCCCn2ccc3ccccc32)c1)C(=O)O [6h, 2-(3-(3-(1H-indol-1-yl)propoxy)phenoxy)-2-methylpropanoic acid] | 3.81±0.83 | 1.57±0.25 | 0.78±0.15 |  |  |  |  | 5.28 | 10 µM
CC(C)(Oc1cccc(OCCCn2c3ccccc3c3ccccc32)c1)C(=O)O [6i, 2-(3-(3-(9H-carbazol-9-yl)propoxy)phenoxy)-2-methylpropanoic acid] | 1.32±0.22 | 2.87±0.33 | 0.88±0.13 |  |  |  |  |  | 
CC(C)(Oc1cccc(OCCCn2cnc3ccccc32)c1)C(=O)O [6j, 2-(3-(3-(1H-benzo[d]imidazol-1-yl)propoxy)phenoxy)-2-methylpropanoic acid] | 0.97±0.15 | 1.17±0.00 | 0.86±0.03 |  |  |  |  |  | 
CC(C)(Oc1cccc(OCCCc2ccccc2)c1)C(=O)O [6k, 2-Methyl-2-(3-(3-phenylpropoxy)phenoxy)propanoic acid] | 1.50±0.08 | 1.62±0.11 | 0.99±0.22 |  |  |  |  |  | 
CC(C)(Oc1cccc(OCc2cccnc2)c1)C(=O)O [6l, 2-Methyl-2-(3-(pyridin-3-ylmethoxy)phenoxy)propanoic acid] | 1.39±0.21 | 1.34±0.01 | 6.60±0.90 | 8.72 | 0.1 µM |  |  |  | 
CC(C)(Oc1ccc(OCCCc2ccccc2)cc1)C(=O)O [6m, 2-Methyl-2-(4-(3-phenylpropoxy)phenoxy)propanoic acid] | 2.01±0.22 | 2.26±0.18 | 1.73±0.03 |  |  |  |  |  | 
CC(C)(Oc1ccc(OCC(=O)c2ccccc2)cc1)C(=O)O [6n, 2-Methyl-2-(4-(2-oxo-2-phenylethoxy)phenoxy)propanoic acid] | 1.16±0.02 | 1.31±0.12 | 1.24±0.06 |  |  |  |  |  | 
CC(C)(Oc1cccc(OCCn2ccc3ccccc32)c1)C(=O)O [6o, 2-(3-(2-(1H-indol-1-yl)ethoxy)phenoxy)-2-methylpropanoic acid] | 1.01±0.11 | 3.01±0.16 | 1.00±0.24 |  |  |  |  |  | 
c1ccc2c(c1)ccn2CCOc1ccc(OCc2nn[nH]n2)cc1 [10a, 1-(2-(4-((2H-tetrazol-5-yl)methoxy)phenoxy)ethyl)-1H-indole] | 0.76±0.04 | 1.30±0.06 | 1.28±0.06 |  |  |  |  |  | 
c1ccc2c(c1)c1ccccc1n2CCOc1ccc(OCc2nn[nH]n2)cc1 [10b, 9-(2-(4-((2H-tetrazol-5-yl)methoxy)phenoxy)ethyl)-9H-carbazole] | 0.55±0.03 | 1.26±0.22 | 1.39±0.21 |  |  |  |  |  | 
c1ccc2c(c1)ccn2CCCOc1ccc(OCc2nn[nH]n2)cc1 [10c, 1-(3-(4-((2H-tetrazol-5-yl)methoxy)phenoxy)propyl)-1H-indole] | 0.67±0.02 | 0.96±0.01 | 1.01±0.08 |  |  |  |  |  | 
c1ccc2c(c1)c1ccccc1n2CCCOc1ccc(OCc2nn[nH]n2)cc1 [10d, 9-(3-(4-((2H-tetrazol-5-yl)methoxy)phenoxy)propyl)-9H-carbazole] | 0.50±0.04 | 0.96±0.02 | 1.15±0.22 |  |  |  |  |  | 
c1ccc(CCCOc2ccc(OCc3nn[nH]n3)cc2)cc1 [10e, 5-((4-(3-Phenylpropoxy)phenoxy)methyl)-2H-tetrazole] | 1.91±0.13 | 1.93±0.23 | 1.26±0.15 |  |  |  |  |  | 
c1cncc(COc2ccc(OCc3nn[nH]n3)cc2)c1 [10f, 3-((4-((2H-tetrazol-5-yl)methoxy)phenoxy)methyl)pyridine] | 0.80±0.02 | 1.24±0.07 | 1.02±0.09 |  |  |  |  |  | 
c1cc(OCCn2ccc3ccccc32)cc(OCc2nn[nH]n2)c1 [10g, 1-(2-(3-((2H-tetrazol-5-yl)methoxy)phenoxy)ethyl)-1H-indole] | 0.90±0.05 | 2.83±0.49 | 0.83±0.04 |  |  |  |  |  | 
c1cc(OCCn2c3ccccc3c3ccccc32)cc(OCc2nn[nH]n2)c1 [10h, 9-(2-(3-((2H-tetrazol-5-yl)methoxy)phenoxy)ethyl)-9H-carbazole] | 0.81±0.02 | 26.81±1.56 | 1.16±0.05 |  |  | 30 µM | 5.16 |  | 
c1cc(OCCCn2ccc3ccccc32)cc(OCc2nn[nH]n2)c1 [10i, 1-(3-(3-((2H-tetrazol-5-yl)methoxy)phenoxy)propyl)-1H-indole] | 0.89±0.19 | 1.19±0.09 | 0.77±0.01 |  |  |  |  |  | 
c1cc(OCCCn2c3ccccc3c3ccccc32)cc(OCc2nn[nH]n2)c1 [10j, 9-(3-(3-((2H-tetrazol-5-yl)methoxy)phenoxy)propyl)-9H-carbazole] | 0.65±0.00 | 0.69±0.01 | 0.88±0.09 |  |  |  |  |  | 
c1ccc(CCCOc2cccc(OCc3nn[nH]n3)c2)cc1 [10k, 5-((3-(3-Phenylpropoxy)phenoxy)methyl)-2H-tetrazole] | 0.74±0.09 | 1.46±0.20 | 1.24±0.17 |  |  |  |  |  | 
c1cncc(COc2cccc(OCc3nn[nH]n3)c2)c1 [10l, 3-((3-((2H-tetrazol-5-yl)methoxy)phenoxy)methyl)pyridine] | 1.15±0.06 | 1.07±0.03 | 9.56±2.50 | 7.56 | 0.1 µM |  |  |  | 
